Data published in patent publication US20080306243A1, “Hla-Binding Peptide, and Dna Fragment and Recombinant Vector Coding for Said Hla-Binding Peptide” (NEC CORPORATION, priority 2005, published 2008).
Like-named read-outs stand apart in the source and are kept apart here. Ends that are not written are not given here.

How the values were obtained:
HLA-A0201 molecule = HLA-A0201 molecule (Homo sapiens, UniProt P04439, D140Y/D185E/D98H/E176V/E277Q/G131W/G231S/I119V/I121R/I166T/I218V/L300P/L318F/N151K/N90K/P208A/P217A/Q86G/Q94H/R138H/R169H/T345S); assay: Experiment of binding peptide to HLA-A0201 molecule (JY cells, flow cytometry); settings: expressed as -log Kd value
[1] = system: human HLA-A type molecule; assay: Binding experiments summarised for HLA-A type molecules
Description: (§1) The ability of a peptide to bind to an HLA-A2402 molecule, which is a product of the HLA-A*2402 gene, was measured using C1R-A24 cells expressing the HLA-A*2402 gene (cells prepared by Professor Masafumi Takiguchi, Kumamoto University being supplied with permission by Assistant Professor Masaki Yasukawa, Ehime University).
(§2) C1R-A24 cells were first exposed to acidic conditions at a pH of 3.3 for 30 seconds, thus dissociating and removing a light chain β2m, which is associated with HLA class I molecules in common, and an endogenous peptide originally bound to the HLA-A2402 molecule. After neutralization, purified β2m was added to C1R-A24 cells, the obtained product was added to serial dilutions of a peptide, and incubated on ice for 4 hours. Staining was carried out using fluorescently labeled monoclonal antibody 17A12, which recognizes association (MHC-pep) of the three members, that is, HLA-A2402 molecule, the peptide, and β2m, which had reassociated during the incubation.
(§3) Subsequently, the MHC-pep count per C1R-A24 cell (proportional to the strength of fluorescence of the above-mentioned fluorescent antibody) was quantitatively measured using an FACScan fluorescence-activated cell sorter (Becton Dickinson Biosciences). A binding dissociation constant Kd value between the HLA-A24 molecule and the peptide was calculated from the average strength of fluorescence per cell by a published method (Udaka et al., Immunogenetics, 51, 816-828, 2000).
The ability of a peptide to bind to an HLA-A0201 molecule, which is a product of the HLA-A*0201 gene, was measured using strain JY cells expressing the HLA-A*0201 (obtained from ATCC (American Type Culture Collection)).
JY cells were first exposed to acidic conditions at a pH of 3.8 for 30 seconds, thus dissociating and removing a light chain β2m and an endogenous peptide, which were noncovalently associated with the HLA-A0201 molecule. After neutralization, a reassociation experiment was carried out. The above-mentioned JY cells and the purified β2m were added to stepped serial dilutions of peptide for which the binding ability was to be measured, and incubation was carried out on ice for 4 hours. HLA-A0201 molecules that had reassociated up to this point were stained using the associating type specific fluorescently-labeled monoclonal antibody BB7.2.
Subsequently, the amount of fluorescence per cell was measured using a flow cytometer and a dissociation constant Kd value was calculated by a published method (Udaka et al., Immunogenetics, 51, 816-828, 2000).
(§4) The ability of a peptide to bind to an HLA-A0206 molecule, which is a product of the HLA-A*0206 gene, was measured using RA2.6 cells (cell strain newly prepared in Kochi University), wherein cDNA of the HLA-A*0206 gene is expressed in RAMS cells, which are mouse peptide transporter TAP-deficient cells.
(§5) RA2.6 cells were first cultured overnight at 26° C., serial dilutions of peptide were added to HLA-A0206 molecules having no peptide bound thereto that were deposited on the cell surface, and binding was carried out at room temperature for 30 minutes.
(§6) Subsequently, culturing was carried out at 37° C. for 3.5 hours, empty HLA-A0206 molecules to which no peptide were bound was denatured, and the tertiary structure was lost.
(§7) The cells were stained by adding thereto fluorescently labeled monoclonal antibody 17A10 or 17A12, which specifically recognize the peptide-binding HLA-A0206 molecule, and incubating on ice for 20 minutes.
(§8) Subsequently, the amount of fluorescence per cell was measured using a flow cytometer, and a dissociation constant Kd value was calculated by a published method (Udaka et al., Immunogenetics, 51, 816-828, 2000).

HLA-A2402 molecule = HLA-A2402 molecule (Homo sapiens, UniProt P04439, D101N/D140Y/D185E/E176V/E190D/F33S/G103R/G107R/I119L/I121M/I306V/K335N/L105A/L180Q/L300P/N151K/N90K/Q86E/Q94H/R106L/R138H/R89G/T104I/T345S/V100E/W191G/Y123F); assay: Experiment of binding peptide to HLA-A2402 molecule (C1R-A24 cells, flow cytometry)
Description: as §1, §2, §3

HLA-A0206 molecule = target: T1, HLA-A0206 molecule (Homo sapiens, UniProt P04439, D140Y/D185E/D98H/E176V/E277Q/F33Y/G131W/G231S/I119V/I121R/I166T/I218V/L300P/L318F/N151K/N90K/P208A/P217A/Q86G/Q94H/R138H/R169H/T345S); assay: Experiment of binding peptide to HLA-A0206 molecule (RA2.6 cells, flow cytometry)
T1 construct: expressed in transfected cells; host or cells: RA2.6 cells (RAMS mouse TAP-deficient cells expressing HLA-A*0206 cDNA)
Description: as §4, §5, §6, §7, §8

[2] = binding to HLA-A2402 molecule, C1R-A24 cells, read-out: BINDING EXPERIMENT DATA (converted)
[3] = binding to HLA-A0206 molecule, RA2.6 cells, read-out: BINDING EXPERIMENT DATA (converted)

Row | binding to a human HLA-A type molecule ([1]; result in words) | Kd (HLA-A2402 molecule; [2]) | Compound | further results
1 |  |  | FHPEDTGQV [compound 13] | Kd (HLA-A0201 molecule): 2960 nM
2 | experimentally confirmed to bind | 4200 nM | GVLQGITSW [compound 8] | 
3 |  |  | CC(C)C[C@H](NC(=O)[C@@H](NC(=O)CN)C(C)C)C(=O)N[C@H](C(=O)N[C@@H](Cc1c[nH]cn1)C(=O)N1CCC[C@H]1C(=O)N[C@@H](CCC(N)=O)C(=O)N[C@@H](Cc1c[nH]c2ccccc12)C(=O)N[C@H](C(=O)O)C(C)C)C(C)C [compound 19] | Kd (HLA-A0206 molecule; [3]): 525 nM
4 |  |  | DLPTQEPAL [compound 27] | Kd (HLA-A0206 molecule; [3]): 5440 nM
5 |  |  | WVLTAAHCI [compound 20] | Kd (HLA-A0206 molecule): 1130 nM
6 | experimentally confirmed to bind | 33.5 nM | ILLGRHSLF [compound 3] | 
7 | experimentally confirmed to bind | 223 nM | VHPQKVTKF [compound 7] | 
8 | experimentally confirmed to bind | 5870 nM | DLPTQEPAL [compound 4] | 
9 | experimentally confirmed to bind | 458 nM | CC(C)C[C@H](NC(=O)[C@@H](NC(=O)[C@H](Cc1c[nH]c2ccccc12)NC(=O)[C@H](CCC(N)=O)NC(=O)[C@@H]1CCCN1C(=O)[C@H](Cc1c[nH]cn1)NC(=O)[C@@H](NC(=O)[C@H](CC(C)C)NC(=O)[C@@H](N)C(C)C)C(C)C)C(C)C)C(=O)O [compound 9] | 
10 |  |  | CC(C)C[C@H](N)C(=O)N[C@H](C(=O)N[C@@H](C)C(=O)N[C@@H](CO)C(=O)N[C@@H](CCCNC(=N)N)C(=O)NCC(=O)N[C@@H](CCCNC(=N)N)C(=O)N[C@@H](C)C(=O)N[C@H](C(=O)O)C(C)C)C(C)C [compound 22] | Kd (HLA-A0206 molecule; [3]): 5580 nM
11 | experimentally confirmed to bind | 50.9 nM | WVPVVFLTL [compound 2] | 
12 |  |  | WVPVVFLTL [compound 24] | Kd (HLA-A0206 molecule; [3]): 182 nM
13 | experimentally confirmed to bind | 47.8 nM | QVFQVSHSF [compound 5] | 
14 | experimentally confirmed to bind | 62 nM | ILSRIVGGW [compound 6] | 
15 |  |  | WVLTAAHCI [compound 12] | binding to a human HLA-A type molecule [1]: experimentally confirmed to bind; Kd (HLA-A2402 molecule): 23200 nM
